Reference: US8257931B2 (President and Fellows of Harvard College, priority 2005, dated 2012)
Entries after “also recorded” stand apart in the source; their conditions may differ. Where two headings read alike, the source gives them in different places.

Tests used:
[1] = system: cap-dependent translation; experiment: In vitro translation of dual luciferase reporter in rabbit reticulocyte lysate, cap-dependent Renilla luciferase; type: biochemical
Source text: (§1) To determine the relative effects of the compound on cap dependent and independent translation, we utilized a bicistronic mRNA construct containing the gene for Renilla luciferase under the control of the cap and the message for firefly luciferase under the control of the cricket paralysis virus IRES (FIG. 2A). […] A dicistronic reporter construct containing the Renilla reniformis luciferase sequence after the 5′ UTR followed by the CrPV IRES and the firefly luciferase sequence was used to build a reporter construct plasmid. The reporter construct plasmid was linearized with BamHI and transcribed in vitro with an ARCA cap using the mMessage Machine T7 Ultra Kit (Ambion). In vitro translation reactions were carried out using Red Nova reticulocyte lysate (Novagen) with 2 mM magnesium acetate and […] potassium acetate, incubated at 30 degrees C. for 90 minutes. Translation of reporter genes was measured using the Dual-Glo luciferase assay (Promega) in a Wallac Victor^2 plate reader.
(§2) In addition to structurally characterizing the binding of our hit compounds, biological activities of the compounds was evaluated. […] To test this hypothesis in vitro, a translation assay in rabbit reticulocyte lysate was carried out. A dicistronic reporter construct containing a cap-dependent Renilla luciferase and a cricket paralysis virus IRES driven firefly luciferase was utilized to measure the relative affect of a compound on both translation mechanisms.
(§3) A functional cell free assay determined the relative effects of the compounds on cap- and IRES-dependent translations. This assay involved the in vitro translation of bicistronic mRNA reporter construct encoding for renilla luciferase in a cap-dependent and for firefly luciferase in a cap independent manner, the later driven by cricket paralysis virus IRES.

[2] = system: Jurkat cells; experiment: Western blotting of Jurkat cell extracts for protein levels; conditions: 8 hours
Description: (§7) For analysis of cellular protein and mRNA levels, Jurkat cells were grown for 8 hours in the presence of the compound. Extracts for Western blotting were prepared from half of the cells by multiple freeze-thaw cycles. β-actin, Bcl-xL, and c-myc were detected using polyclonal antibodies (Cell Signaling). For the remaining cells the PARIS kit (Ambion) was used to isolate total nuclear and total cytoplasmic RNA fractions. The integrity of the fractionation was confirmed by agarose gel electrophoresis (as prescribed by Ambion). Contaminating DNA was removed using the DNA-free kit (Ambion), and cDNA was prepared using MMLV reverse transcriptase (Promega). The relative abundance of the c-myc and Bcl-xL messages compared to β-actin was determined by real-time PCR with validated QuantiTec probes and the QuantiTec SYBR Green Kit (Qiagen), using a thermocycler from Applied Biosystems.

[3] = system: human lung cancer cell line (A549); experiment: A549 cell growth inhibition, Alamar Blue assay; type: cell-based
Description: (§4) Adherent human solid tumor cells were plated and maintained for 3 days in the presence of increasing concentration of the compounds, and cell proliferation was measured by alamar blue assay, where 10% of commercially available solution is added to the cell medium and measure fluorescence in 96-well plates at wavelength of 530 nm excitation and 590 nm emission. The data calculations were carried out as previously described.
(§5) Compounds were further tested for cell growth inhibition in a human lung cancer cell line (A549) and conlon cancer cell line (HT29). The Alamar Blue assay, which specifically measures the inhibition of cell proliferation, was used to assess the GI50's of the compounds.

[4] = system: A549 cells; experiment: A549 cytotoxicity, CellTiter-Glo luminescence assay; conditions: A549, 16 hours, concentration range of anti-proliferative activity
Description: To determine if this was simply due to toxicity, cell viability after compound treatment was determined using a luminescence assay (FIG. 8B).

[5] = system: Jurkat cells; experiment: Apoptosis in Jurkat cells: sub-G1 DNA content by FACS, Hoechst 33342 nuclear morphology; type: cell-based, human
Description: (§6) Such results can result from pro-apoptotic and/or anti-proliferative activity in these cell lines. Cell viability was measured by treatment of Jurkat cells with compound for 24 hours and determination of intracellular ATP using the CellTiterGlo assay (Promega). […] After fixation and staining with PI cellular DNA content was determined by FACS analysis in a FACSCalibur machine (Beckton Dickinson). Nuclear morphology after 24 hour EG1-1 treatment was visualized by staining of cells with Hoechst 33342 dye and fluorescence microscopy.

[6] = system: A549 lung cancer cells; experiment: A549 proliferation, sulforhodamine B (SRB) assay; type: cell-based, human
Description: FIG. 28 is a graph showing the results of a cell proliferation assay. A549 cells, which are human lung cancer cells, are grown in plates for five days in medium containing 5% FCS and compound. The number of cells is quantified by staining with sulforhodamine B.

[7] = system: Jurkat cells; experiment: Real-time PCR of c-myc and Bcl-xL mRNA relative to β-actin in Jurkat cells; conditions: 8 hrs
Description: as §7

[8] = system: Jurkat cells; experiment: Jurkat cell viability by intracellular ATP (CellTiterGlo); type: cell-based, human; conditions: 24 hours
Description: as §6

[9] = system: IRES driven translation; experiment: In vitro translation of dual luciferase reporter in rabbit reticulocyte lysate, CrPV IRES driven firefly luciferase; type: biochemical
Source text: as §1, §2, §3

[10] = system: HT29 colon cancer cells; experiment: HT29 cell growth, Alamar Blue assay; type: cell-based; conditions: Homo sapiens, HT-29
Description: as §4
Med. Chem. Lett. 14: 2547-50, 2004. […] .
as §5

- cap-dependent translation (Renilla luciferase) ([1]; listed as compound 1): inhibit dose-dependently
- GI50 [3]: 5 µM
- IC50 ([6]; Homo sapiens, A549, FIG. 8A, read-out: IC50, anti-proliferative activity in A549 cells): ~6 µM
- IRES driven / cap-independent translation (firefly luciferase) ([9]; listed as compound 1): enhance
- IC50 [10]: 9 µM
- GI50 ([10]; Alamar Blue assay): 9 µM
SMILES: O=C(O)/C(Cc1ccccc1[N+](=O)[O-])=N/Nc1nc(-c2ccc(Cl)c(Cl)c2)cs1 [EGI-1, 2-{[4-(3,4-Dichloro-phenyl)-thiazol-2-yl]-hydrazono}-3-(2-nitro-phenyl)-propionic acid]
- cap-dependent translation (Renilla luciferase) [1]: inhibits cap-dependent translation; also recorded: inhibited in a dose-dependent manner; also recorded: inhibited translation of the cap-dependent luciferase
- effect on strong mRNAs such as β-actin (protein level) [2]: little or no effect
- production of proteins encoded by weak mRNAs (Bcl-xL, c-myc) [2]: inhibits the production
- cytotoxicity (cell viability after compound treatment) [4]: No significant cytotoxicity
- apoptosis induction [5]: induces apoptosis; also recorded: pro-apoptotic activity
- sub-G1 fraction on co-treatment with zVAD-FMK ([5]; 60 μM with 100 μM zVAD-FMK, 24 hours): suppressed
- nuclear morphology (Hoechst 33342) ([5]; 60 μM, 24 hours): induces fragmented nuclear morphology
- sub-G1 fraction (fragmented DNA) ([5]; 60 μM, 24 hours): induces DNA fragmentation; also recorded: large increase in the sub-G1 fraction
- proliferation of A549 cells (in words) ([6]; SRB assay, five day growth period): inhibits proliferation
- transcriptional level, transport or stability of c-myc and Bcl-xL mRNA [7]: does not affect
- cell viability (cellular ATP level) [8]: induces loss of cell viability; also recorded: dose-dependent loss of cell viability
- IRES driven / cap-independent translation (firefly luciferase) [9]: does not inhibit; also recorded: not inhibited and in fact significantly enhanced; also recorded: enhanced translation from the CrPV IRES
